Reference: paper PMC3214022, “Plasmodium falciparum Parasites Are Killed by a Transition State Analogue of Purine Nucleoside Phosphorylase in a Primate Animal Model” (PLoS ONE, 2011)
Several values for one entry are separate records, joined by “and”; a condition that tells them apart may be missing. Equal values may be shown once.

Assay: Weights, CBC and blood chemistry, Table S1 sheet PD-1 (efficacy study in P. falciparum-infected Aotus)
Type: in vivo, Aotus lemurinus lemurinus
Conditions: IV 10 mg/kg once a day/3 days
Method: Laboratory bred Aotus lemurinus lemurinus monkeys (0.75–0.89 kg) were maintained as described. […] Blood samples were collected before the treatment started (t = 0), 0.05 h, 0.5 h, 1 h, 2 h, 6 h, 24 h, 48 h, and 6, 12 and 18 days after the first dose from each monkey and processed as described below. Pharmacokinetic parameters were calculated using PKSolver. For efficacy studies, Aotus monkeys were inoculated intravenously with 5×10^6 parasites of the FVO strain of P. falciparum in an approved treatment protocol. […] Parasitaemia was determined by Giemsa-stained thick blood smears prepared daily from the marginal ear vein [41]. Blood samples were collected from each monkey and transferred to tubes containing lithium heparin, centrifuged and both plasma and blood cells were frozen at −80 °C until analysis. Animals received a physical examination and blood chemistry profiles were monitored after treatment as described previously. Any monkey not responding appropriately to treatment was cured of its infection with mefloquine (40 mg kg^−1). […] The day of clearance is defined as the first of three consecutive days in which the thick blood films are parasite negative. The day of recrudescence is the first of three consecutive days of positive thick blood films after a period of clearance. Suppression is defined as a transient decrease in the parasite count post-treatment without clearance.

Nc1nc2c(CN3CC(O)C(CO)C3)c[nH]c2c(=O)[nH]1 (centres unmarked) [BCX4945, 4′-deaza-1′-aza-2′-deoxy-1′-(9-methylene)-Immucillin-G]
Blood Urea Nitrogen (day 9, 10 mg/kg): 10.65 mg/dL and 14.3 mg/dL and 10.85 mg/dL and 10.75 mg/dL and 11.6 mg/dL and 17.75 mg/dL | Creatinine (day 9, 10 mg/kg): 0.59 mg/dL and 0.587 mg/dL and 0.522 mg/dL and 0.609 mg/dL and 0.7 mg/dL and 0.665 mg/dL | Erythrocytes (day 9, 10 mg/kg): 4.53e+06 µL⁻¹ and 4.52e+06 µL⁻¹ and 3.97e+06 µL⁻¹ and 3.87e+06 µL⁻¹ and 3.32e+06 µL⁻¹ and 5.16e+06 µL⁻¹ | Granulocytes (%) (day 9, 10 mg/kg): 19.7% and 21.4% and 19.2% and 30% and 21.1% and 36.1% | Hematocrit (day 9, 10 mg/kg): 36.1% and 34.4% and 30.6% and 31.6% and 28.1% and 40.4% | Hemoglobin (day 9, 10 mg/kg): 12 g/dL and 11.8 g/dL and 10.3 g/dL and 10.5 g/dL and 9.3 g/dL and 13.8 g/dL | Leucocytes (day 9, 10 mg/kg): 16700 µL⁻¹ and 22100 µL⁻¹ and 19500 µL⁻¹ and 11100 µL⁻¹ and 19200 µL⁻¹ and 19700 µL⁻¹ | Lymphocytes (%) (day 9, 10 mg/kg): 65.5% and 44.6% and 64.7% and 56.2% and 66.9% and 50.4% | Mean Corpuscular Hemoglobin (day 9, 10 mg/kg): 26.5 pg and 26.1 pg and 25.9 pg and 27.1 pg and 28.1 pg and 26.7 pg | Mean Corpuscular Volume (day 9, 10 mg/kg): 79.7 fL and 76.1 fL and 77.1 fL and 81.8 fL and 84.7 fL and 78.2 fL | Mean Hemoglobin Content (day 9, 10 mg/kg): 33.3 g/dL and 34.4 g/dL and 33.6 g/dL and 33.2 g/dL and 33.1 g/dL and 34.1 g/dL | Mean Platelet Volume (day 9, 10 mg/kg): 11.9 fL and 15.2 fL and 12.6 fL and 13.1 fL and 13.2 fL and 13.5 fL | Platelets (day 9, 10 mg/kg): 321000 µL⁻¹ and 270000 µL⁻¹ and 322000 µL⁻¹ and 237000 µL⁻¹ and 267000 µL⁻¹ and 336000 µL⁻¹ | Red Cell Distribution Width (day 9, 10 mg/kg): 12.8% and 11.8% and 11.5% and 13.6% and 12.1% | Reticulocytes (day 9, 10 mg/kg): 1.7% and 1.2% and 2.3% and 1.8% and 1.3% and 1.9% | WEIGHT (day 9, 10 mg/kg): 780 g and 698 g and 888 g and 790 g and 930 g and 685 g | Creatinine (day 12, 10 mg/kg): 0.555 mg/dL and 0.539 mg/dL and <0.500 mg/dL and 0.508 mg/dL and 0.604 mg/dL and 0.605 mg/dL | Erythrocytes (day 12, 10 mg/kg): 4.01e+06 µL⁻¹ and 4.03e+06 µL⁻¹ and 3.46e+06 µL⁻¹ and 5.43e+06 µL⁻¹ and 2.96e+06 µL⁻¹ and 4.66e+06 µL⁻¹ | Glutamate Pyruvate Transaminase (day 12, 10 mg/kg): 41.8 U/L and 40.8 U/L and 52.6 U/L and 38.7 U/L and 64.9 U/L and 39.6 U/L | Hematocrit (day 12, 10 mg/kg): 31.6% and 31.2% and 27.1% and 43.9% and 26.3% and 36.3% | Hemoglobin (day 12, 10 mg/kg): 10.9 g/dL and 10.7 g/dL and 9.2 g/dL and 14.9 g/dL and 8.6 g/dL and 12.7 g/dL | Leucocytes (day 12, 10 mg/kg): 36300 µL⁻¹ and 31000 µL⁻¹ and 41200 µL⁻¹ and 29300 µL⁻¹ and 42600 µL⁻¹ and 45600 µL⁻¹ | Lymphocytes (%) (day 12, 10 mg/kg): 72.6% and 57.1% and 73% and 56% and 73.9% and 60.8% | Lymphocytes (x 103/ul) (day 12, 10 mg/kg): 26.4 x 103/ul and 17.7 x 103/ul and 30.1 x 103/ul and 16.4 x 103/ul and 31.5 x 103/ul and 27.7 x 103/ul | Mean Corpuscular Hemoglobin (day 12, 10 mg/kg): 27.2 pg and 26.5 pg and 27.5 pg and 29 pg and 27.4 pg | Mean Corpuscular Volume (day 12, 10 mg/kg): 78.8 fL and 77.3 fL and 78.4 fL and 80.9 fL and 88.8 fL and 78 fL | Mean Hemoglobin Content (day 12, 10 mg/kg): 34.5 g/dL and 34.3 g/dL and 33.8 g/dL and 34.1 g/dL and 32.7 g/dL and 35.1 g/dL | Mean Platelet Volume (day 12, 10 mg/kg): 17.3 fL and 13.7 fL and 12.9 fL and 18.2 fL and 11.1 fL | Monocytes (x 103/ul) (day 12, 10 mg/kg): 3.5 x 103/ul and 4.3 x 103/ul and 6 x 103/ul and 4.1 x 103/ul | Red Cell Distribution Width (day 12, 10 mg/kg): 13.5% and 12.4% and 12.7% and 11.4% and 14.8% and 12.2% | Reticulocytes (day 12, 10 mg/kg): 1.7% and 2.1% and 2.5% and 2.6% and 1.3% | WEIGHT (day 12, 10 mg/kg): 766 g and 680 g and 832 g and 849 g and 684 g | Blood Urea Nitrogen (day 19, 10 mg/kg): 19.25 mg/dL and <10.0 mg/dL and 15.3 mg/dL and 13.8 mg/dL and 15.4 mg/dL and 13.5 mg/dL | Creatinine (day 19, 10 mg/kg): 0.514 mg/dL and <0.500 mg/dL and 0.504 mg/dL and 0.562 mg/dL and 0.507 mg/dL | Erythrocytes (day 19, 10 mg/kg): 4.88e+06 µL⁻¹ and 4.44e+06 µL⁻¹ and 4.27e+06 µL⁻¹ and 4e+06 µL⁻¹ and 4.12e+06 µL⁻¹ and 5.22e+06 µL⁻¹ | Glutamate Pyruvate Transaminase (day 19, 10 mg/kg): 29 U/L and 20.1 U/L and 31.3 U/L and 23.9 U/L and 26.3 U/L and 21.8 U/L | Hemoglobin (day 19, 10 mg/kg): 14.2 g/dL and 11.9 g/dL and 11.8 g/dL and 12.5 g/dL | Leucocytes (day 19, 10 mg/kg): 30100 µL⁻¹ and 23700 µL⁻¹ and 16700 µL⁻¹ and 22900 µL⁻¹ and 19600 µL⁻¹ and 17100 µL⁻¹ | Lymphocytes (%) (day 19, 10 mg/kg): 87.7% and 48.9% and 76.9% and 73.7% and 77.1% and 48.7% | Mean Corpuscular Hemoglobin (day 19, 10 mg/kg): 29 pg and 26.8 pg and 27.5 pg and 29.7 pg and 30.3 pg and 27.1 pg | Mean Corpuscular Volume (day 19, 10 mg/kg): 87.8 fL and 79.1 fL and 84.9 fL and 91.2 fL and 93.4 fL and 81.3 fL | Mean Hemoglobin Content (day 19, 10 mg/kg): 33.1 g/dL and 33.9 g/dL and 32.4 g/dL and 32.6 g/dL and 32.5 g/dL and 33.4 g/dL | Mean Platelet Volume (day 19, 10 mg/kg): 15.6 fL and 12.8 fL and 12.3 fL and 14.4 fL and 14.8 fL and 13.8 fL | Monocytes (%) (day 19, 10 mg/kg): 5.6% and 6.4% and 11.4% and 6.6% | Red Cell Distribution Width (day 19, 10 mg/kg): 23.9% and 15.2% and 21.7% and 23.4% and 22.5% and 17.2% | Reticulocytes (day 19, 10 mg/kg): 1.5% and 2% and 2.3% and 2.2% | WEIGHT (day 19, 10 mg/kg): 777 g and 684 g and 852 g and 754 g and 875 g and 690 g | Blood Urea Nitrogen (day 25, 10 mg/kg): 27.95 mg/dL and 24.85 mg/dL and 23.3 mg/dL and 19.35 mg/dL and 20.25 mg/dL | Creatinine (day 25, 10 mg/kg): <0.500 mg/dL and 0.563 mg/dL and 0.659 mg/dL and 0.585 mg/dL | Erythrocytes (day 25, 10 mg/kg): 4.42e+06 µL⁻¹ and 5.34e+06 µL⁻¹ and 5.57e+06 µL⁻¹ and 4.57e+06 µL⁻¹ and 4.75e+06 µL⁻¹ | Glutamate Pyruvate Transaminase (day 25, 10 mg/kg): 21.7 U/L and 23.8 U/L and 25 U/L and 26.2 U/L | Hematocrit (day 25, 10 mg/kg): 35.7% and 44.6% and 40.2% and 42.6% | Hemoglobin (day 25, 10 mg/kg): 12.1 g/dL and 15.2 g/dL and 15.3 g/dL and 13.4 g/dL and 14.4 g/dL | Leucocytes (day 25, 10 mg/kg): 11500 µL⁻¹ and 12400 µL⁻¹ and 15400 µL⁻¹ and 12700 µL⁻¹ and 10500 µL⁻¹ | Lymphocytes (%) (day 25, 10 mg/kg): 72.6% and 81.9% and 63.9% and 71.1% and 64.3% | Lymphocytes (x 103/ul) (day 25, 10 mg/kg): 8.3 x 103/ul and 10.2 x 103/ul and 9.8 x 103/ul and 9 x 103/ul and 6.8 x 103/ul | Mean Corpuscular Hemoglobin (day 25, 10 mg/kg): 27.3 pg and 28.5 pg and 27.5 pg and 29.3 pg and 30.2 pg | Mean Corpuscular Volume (day 25, 10 mg/kg): 80.8 fL and 83.6 fL and 80.1 fL and 88.1 fL and 89.5 fL | Mean Hemoglobin Content (day 25, 10 mg/kg): 33.8 g/dL and 34.1 g/dL and 34.3 g/dL and 33.2 g/dL and 33.7 g/dL | Mean Platelet Volume (day 25, 10 mg/kg): 12 fL and 13 fL and 11 fL | Monocytes (%) (day 25, 10 mg/kg): 11.3% and 6.2% and 5.7% and 7.9% and 8.2% | Monocytes (x 103/ul) (day 25, 10 mg/kg): 1.3 x 103/ul and 0.8 x 103/ul and 0.9 x 103/ul and 1 x 103/ul | Platelets (day 25, 10 mg/kg): 342000 µL⁻¹ and 291000 µL⁻¹ and 454000 µL⁻¹ and 397000 µL⁻¹ and 336000 µL⁻¹ | Red Cell Distribution Width (day 25, 10 mg/kg): 16.7% and 18.3% and 15.7% and 19.1% and 17.5% | Reticulocytes (day 25, 10 mg/kg): 2.1% and 1.8% and 1.7% and 2.6% and 2.4% | WEIGHT (day 25, 10 mg/kg): 825 g and 760 g and 690 g and 687 g | Blood Urea Nitrogen (day 26): 16.65 mg/dL | Creatinine (day 26): 0.537 mg/dL | Erythrocytes (day 26): 4.54e+06 µL⁻¹ | Glutamate Pyruvate Transaminase (day 26): 18.2 U/L | Granulocytes (%) (day 26): 46.7% | Granulocytes (x 103/ul) (day 26): 7.7 x 103/ul | Hematocrit (day 26): 35.9% | Hemoglobin (day 26): 12 g/dL | Leucocytes (day 26): 16500 µL⁻¹ | Lymphocytes (%) (day 26): 45.8% | Lymphocytes (x 103/ul) (day 26): 7.6 x 103/ul | Mean Corpuscular Hemoglobin (day 26): 26.3 pg | Mean Corpuscular Volume (day 26): 78.9 fL | Mean Hemoglobin Content (day 26): 33.4 g/dL | Mean Platelet Volume (day 26): 12.5 fL | Monocytes (%) (day 26): 7.5% | Monocytes (x 103/ul) (day 26): 1.2 x 103/ul | Platelets (day 26): 314000 µL⁻¹ | Red Cell Distribution Width (day 26): 16.2% | Reticulocytes (day 26): 1.9% | WEIGHT (day 26): 910 g | Creatinine (day -2, 10 mg/kg): 0.623 mg/dL and 0.539 mg/dL and 0.583 mg/dL and 0.677 mg/dL and 0.579 mg/dL and 0.564 mg/dL | Erythrocytes (day -2, 10 mg/kg): 6.51e+06 µL⁻¹ and 6.11e+06 µL⁻¹ and 6.26e+06 µL⁻¹ and 5.03e+06 µL⁻¹ and 5.52e+06 µL⁻¹ and 5.2e+06 µL⁻¹ | Hematocrit (day -2, 10 mg/kg): 50% and 47.6% and 40.6% and 44.3% and 42.4% | Hemoglobin (day -2, 10 mg/kg): 17.2 g/dL and 16.6 g/dL and 16.4 g/dL and 14.2 g/dL and 15.2 g/dL | Leucocytes (day -2, 10 mg/kg): 18500 µL⁻¹ and 15700 µL⁻¹ and 15900 µL⁻¹ and 16400 µL⁻¹ and 10600 µL⁻¹ and 21000 µL⁻¹ | Mean Corpuscular Hemoglobin (day -2, 10 mg/kg): 26.4 pg and 27.2 pg and 26.3 pg and 28.2 pg and 27.5 pg and 33.1 pg | Mean Corpuscular Volume (day -2, 10 mg/kg): 76.8 fL and 78 fL and 76.1 fL and 80.7 fL and 80.2 fL and 81.5 fL | Mean Hemoglobin Content (day -2, 10 mg/kg): 34.4 g/dL and 34.9 g/dL and 34.5 g/dL and 34.3 g/dL and 40.6 g/dL
